Results from US9714250B2, “Crystalline forms of temozolomide and the method for preparing same” (Jiangsu Tasly Diyi Pharmaceutical Co., Ltd., priority 2013, dated 2017).

Legend:
Assay type in all cases: physicochemical
[1] = Light exposure test (stability); conditions: for Appearance and color / Content / Drying loss / Related substances: light intensity 4500±500Lx; for Related substances: HPLC
Experimental: (§1) In the following test, related substances were determined as follows: HPLC method was used and chromatographic conditions were as follows: C18 column using octadecylsilane bonded silica gel as the filler, isocratic elution using methanol: 0.5% glacial acetic acid solution (10:90) as the mobile phase, and detection wavelength was at 254 nm.
Crystalline form A of Temozolomide (Form A0 prepared by the method of EXAMPLE 1) was exposed under conditions of light intensity of 4500±500Lx, sampled and determined on the 5th and 10th day.
Crystalline form B of Temozolomide (Form B0 prepared by the method of EXAMPLE 6) was placed, exposed under conditions of light intensity of 4500±500Lx, sampled and determined on the 5th and 10th day.
Crystalline Form C of Temozolomide (Form C prepared by the method of EXAMPLE 14) was placed, exposed under conditions of light intensity of 4500±500Lx, sampled and determined on the 5th and 10th day.

[2] = High temperature test (stability); conditions: for Appearance and color / Content / Drying loss / Related substances: 60° C. incubator; for Related substances: HPLC
Experimental: as §1
Crystalline form A of Temozolomide (Form A0 prepared by the method of EXAMPLE 1) was placed in 60° C. incubator, sampled and determined on the 5th and 10th day.
Crystalline Form B of Temozolomide (Form B0 prepared by the method of EXAMPLE 6) was placed in 60° C. incubator, sampled and determined on the 5th and 10th day.
Crystalline Form C of Temozolomide (Form C prepared by the method of EXAMPLE 14) was placed in 60° C. incubator, sampled and determined on the 5th and 10th day.

[3] = Accelerated test (stability); conditions: 40±2° C., relative humidity 75±5%; for Appearance and color / Content / Related substances: polyethylene film bag; for Related substances: HPLC
Experimental: as §1
Crystalline Form A of Temozolomide (Form A0 prepared by the method of EXAMPLE 1) was sealed by a polyethylene film bag, placed under conditions of 40±2° C. and a relative humidity of 75±5% for 6 months, sampled and determined at the end of the 1st,2nd, 3rd and 6th month.
Crystalline Form B of Temozolomide (Form B0 prepared by the method of EXAMPLE 6) was sealed with a polyethylene film bag and placed under conditions of 40±2° C. and a relative humidity of 75±5% for 6 months, sampled and determined at the end of the 1st, 2nd, 3rd and 6th month.
Crystalline Form C of Temozolomide (Form C prepared by the method of EXAMPLE 14) was sealed with a polyethylene film bag and placed under conditions of 40±2° C. and a relative humidity of 75±5% for 6 months, sampled and determined at the end of the 1st, 2nd, 3rd and 6th month.

[4] = Solubility test; conditions: for Amount of solvent for dissolving tested drug: about 10 mg tested drug
Experimental: It should be noted that each crystalline form of Form A, Form B and Form C has similar solubility properties. Hereinafter, Form A0, B0 and C were chosen only for illustrative purpose.
1. Solubility test of the crystalline Form A of Temozolomide (Form A0 prepared by the method of EXAMPLE 1). Solubility properties were assayed respectively by using DMSO, methanol, water, glacial acetic acid, 0.1M HCl, 0.1M NaOH and ethanol as the solvents.
2. Solubility test of the crystalline form B of Temozolomide (Form B0 prepared by the method of EXAMPLE 6). Solubility properties were assayed respectively by using DMSO, methanol, water, glacial acetic acid, 0.1M HCl, 0.1M NaOH and ethanol as the solvents.
3. Solubility test of the crystalline form C of Temozolomide (Form C prepared by the method of EXAMPLE 14). Solubility properties were assayed respectively by using DMSO, methanol, water, glacial acetic acid, 0.1M HCl, 0.1M NaOH and ethanol as the solvents.

[5] = Stability test, overall conclusions; conditions: light exposure, high-temperature, high-humidity and accelerated tests
Experimental: as §1
It should be noted that each crystalline form of Form A, Form B and Form C has similar stability properties. Hereinafter, Form A0, Form B0 and Form C were chosen only for illustrative purpose.

Stability in the light exposure test (conclusion) ([1]; 4500±500Lx, 10 days): stable | Appearance and color ([1]; 0th day): White powder | Content ([1]; 0th day): 99.91% | Drying loss ([1]; 0th day): 0.27% | Related substances ([1]; 0th day): Not detected | Appearance and color ([1]; 5th day): White powder | Content ([1]; 5th day): 99.90% | Drying loss ([1]; 5th day): 0.30% | Related substances ([1]; 5th day): Not detected | Appearance and color ([1]; 10th day): White powder | Content ([1]; 10th day): 99.96% | Drying loss ([1]; 10th day): 0.32% | Related substances ([1]; 10th day): Not detected | Appearance and color ([2]; 0th day): White powder | Content ([2]; 0th day): 99.91% | Drying loss ([2]; 0th day): 0.35% | Related substances ([2]; 0th day): Not detected | Appearance and color ([2]; 5th day): White powder | Content ([2]; 5th day): 99.79% | Drying loss ([2]; 5th day): 0.37% | Related substances ([2]; 5th day): Not detected | Appearance and color ([2]; 10th day): White powder | Content ([2]; 10th day): 99.69% | Drying loss ([2]; 10th day): 0.34% | Related substances ([2]; 10th day): Not detected | Stability in the high-temperature test (conclusion) ([2]; 60° C., 10 days): stable | Stability in the accelerated test (conclusion) ([3]; 6 months): stable | Appearance and color ([3]; 0th month): White powder | Content ([3]; 0th month): 99.91% | Related substances ([3]; 0th month): Not detected | Appearance and color ([3]; 1st month): White powder | Content ([3]; 1st month): 99.61% | Related substances ([3]; 1st month): Not detected | Appearance and color ([3]; 2nd month): White powder | Content ([3]; 2nd month): 99.87% | Related substances ([3]; 2nd month): Not detected | Appearance and color ([3]; 3rd month): White powder | Content ([3]; 3rd month): 99.93% | Related substances ([3]; 3rd month): Not detected | Appearance and color ([3]; 6th month): White powder | Content ([3]; 6th month): 99.65% | Related substances ([3]; 6th month): Not detected | Amount of solvent for dissolving 1 g of tested drug ([4]; solvent 0.1M HCl): 800 mL | Solubility ([4]; solvent 0.1M HCl): Slightly soluble | Amount of solvent for dissolving tested drug ([4]; solvent 0.1M HCl): 8.0 mL | Amount of solvent for dissolving 1 g of tested drug ([4]; solvent 0.1M NaOH): 300 mL | Solubility ([4]; solvent 0.1M NaOH): Slightly soluble | Amount of solvent for dissolving tested drug ([4]; solvent 0.1M NaOH): 3.0 mL | Amount of solvent for dissolving 1 g of tested drug ([4]; solvent DMSO): 80 mL | Solubility ([4]; solvent DMSO): sparingly | Amount of solvent for dissolving tested drug ([4]; solvent DMSO): 0.8 mL | Amount of solvent for dissolving 1 g of tested drug ([4]; solvent Ethanol): 6000 mL | Solubility ([4]; solvent Ethanol): Very slightly | Amount of solvent for dissolving tested drug ([4]; solvent Ethanol): 60 mL | Amount of solvent for dissolving 1 g of tested drug ([4]; solvent Glacial acetic acid): 300 mL | Solubility ([4]; solvent Glacial acetic acid): Slightly soluble | Amount of solvent for dissolving tested drug ([4]; solvent Glacial acetic acid): 3.0 mL | Amount of solvent for dissolving 1 g of tested drug ([4]; solvent Methanol): 800 mL | Solubility ([4]; solvent Methanol): Slightly soluble | Amount of solvent for dissolving tested drug ([4]; solvent Methanol): 8.0 mL | Amount of solvent for dissolving 1 g of tested drug ([4]; solvent Water): 800 mL | Solubility ([4]; solvent Water): Slightly soluble | Amount of solvent for dissolving tested drug ([4]; solvent Water): 8.0 mL | Change in the appearance and color, the drying loss, the content and the related substances [5]: no obvious change
Compound: Cn1nnc2c(C(N)=O)ncn2c1=O [Form C, Temozolomide]
